# According to patent US9238688B2 (priority 2010, dated 2016):
# Legend:
# [1] = system: hyaluronic acid synthase gene HAS3; assay: Expression of hyaluronic acid synthase gene HAS3, keratinocyte monolayer culture, real-time PCR; assay type: cell-based; details: human epidermal keratinocytes; final retinol concentration 10^−6 M or 10^−5 M; 6, 24 or 48 hours; Experimental Example 1
# Procedure: (§1) Human epidermal keratinocytes (Cell Application Inc.) were seeded in a 24-well plate containing a human epidermal keratinocytes growth medium (Cell Application Inc.) so that the number of cells contained in a well was 1.5×10^5, and were cultured under the condition of 5% CO2-95% air and at 37° C. for about two days until the cells reached confluence.
# (§2) Meanwhile, each tested substance was dissolved in a small amount of dimethylformamide and added to the medium, and the concentration of dimethylformamide in all experiments was adjusted to 0.1 wt %.
# (§3) After culturing for a given time period, the keratinocytes were recovered and RNA was extracted therefrom. Then, the gene expression of hyaluronic acid synthases HAS2 and HAS3 were assessed by real-time PCR using the following primer pairs (Takara Bio Inc.): […]
# [2] = system: hyaluronic acid synthase gene HAS2; assay: Expression of hyaluronic acid synthase gene HAS2, keratinocyte monolayer culture, real-time PCR; assay type: cell-based; details: human epidermal keratinocytes; final retinol concentration 10^−6 M or 10^−5 M; 6, 24 or 48 hours; Experimental Example 1
# Procedure: as §1, §2, §3
SMILES,"level of HAS3 gene expression (ratio to PPIA, control after 6 hours = 1) [1]","level of HAS2 gene expression (ratio to PPIA, control after 6 hours = 1) [2]"
CC(=O)OC/C=C(C)/C=C/C=C(C)/C=C/C1=C(C)CCCC1(C)C [acetic acid retinol ester],lower levels of gene expression as compared to the retinol-modified collagen,lower levels of gene expression as compared to the retinol-modified collagen
CCCCCCCCCCCCCCCC(=O)OC/C=C(C)/C=C/C=C(C)/C=C/C1=C(C)CCCC1(C)C [palmitic acid retinol ester],lower levels of gene expression as compared to the retinol-modified collagen,lower levels of gene expression as compared to the retinol-modified collagen
